Patent US12114661B2, “Synergistically effective herbicide composition comprising metobromuron and clomazone” (BELCHIM CROP PROTECTION NV, priority 2018, dated 2024)

Columns and labels:
Convolvolus arvensis [1] = assay: Example 1 field trial, herbicidal effect, tank mixture; type: in vivo; settings: 28 DAA
Hibiscus trionum = assay: as above; type: in vivo; settings: 28 DAA
Setaria viridis = assay: as above; type: in vivo; settings: 28 DAA
Amaranthus retroflexus [2] = assay: as above; type: in vivo; settings: 49 DAA
Echinochloa = assay: as above; type: in vivo; settings: 29 DAA
[3] = system: Chenopodium album (CHEAL); assay: Example 2 field trial, herbicidal effect, tank mixture; type: in vivo; settings: 42-56 DAA
Senecio vulgaris (SENVU) = assay: as above; type: in vivo; settings: 42-56 DAA
[4] = system: Chenopodium album (CHEAL); assay: Example 3 field trial, herbicidal effect, tank mixture; type: in vivo; settings: 42-56 DAA
[5] = system: Merculiaris annua (MERAN); assay: as above; type: in vivo; settings: 42-56 DAA
Veronica sp. (VERSS) = assay: as above; type: in vivo; settings: 42-56 DAA
Convolvolus arvensis [6] = assay: Example 4 field trial, herbicidal effect, ready-to-use formulation; type: in vivo; settings: 44 DAA
Cypurus = assay: as above; type: in vivo; settings: 35 DAA
Solanum nigrum [7] = assay: as above; type: in vivo; settings: 35 DAA
Persicaria maculosa = assay: as above; type: in vivo; settings: 35 DAA
Echinochloa crus galli = assay: as above; type: in vivo; settings: 35 DAA
Urtica urens = assay: as above; type: in vivo; settings: 22 DAA
Veronica persica = assay: as above; type: in vivo; settings: 55 DAA
Chenopodium album = assay: Example 5 field trial, herbicidal effect, ready-to-use formulation; type: in vivo; settings: 41 DAA
Galium aparine = assay: as above; type: in vivo; settings: 25 DAA
Amaranthus retroflexus [8] = assay: as above; type: in vivo; settings: 25 DAA
Merculiaris annua [9] = assay: as above; type: in vivo; settings: 41 DAA
Polygonum aviculare = assay: as above; type: in vivo; settings: 38 DAA
Solanum physalifolium = assay: as above; type: in vivo; settings: 38 DAA
Persicaria maculate = assay: as above; type: in vivo; settings: 28 DAA
Amaranthus retroflexus [10] = assay: Example 6 field trial, herbicidal effect, ready-to-use formulation; type: in vivo; settings: 18 DAA
Merculiaris annua [11] = assay: as above; type: in vivo; settings: 18 DAA
[12] = system: Persicaria laphatipholium; assay: as above; type: in vivo; settings: 25 DAA
Solanum nigrum [13] = assay: as above; type: in vivo; settings: 18 DAA
Panonicum ulmi = assay: as above; type: in vivo; settings: CLZ 72 g a.c./ha; 42 DAA
[14] = as above; type: in vivo, Panonicum ulmi; settings: MTB 1200 g a.c./ha; 42 DAA

CC1(C)CON(Cc2ccccc2Cl)C1=O [CLZ, 2-(2-chlorophenyl)methyl-4,4-dimethyl-3-isoxazolidinone]
h.e. (herbicidal effect) (Convolvolus arvensis [1]; CLZ 72 g a.c./ha): 46%
h.e. (herbicidal effect) (Hibiscus trionum; CLZ 72 g a.c./ha): 79%
h.e. (herbicidal effect) (Setaria viridis; CLZ 72 g a.c./ha): 86%
h.e. (herbicidal effect) (Amaranthus retroflexus [2]; CLZ 72 g a.c./ha): 10%
h.e. (herbicidal effect) (Echinochloa; CLZ 72 g a.c./ha): 57%
CLZ h.e. ([3]; CLZ 45 g a.c./ha): 6%
CLZ h.e. ([3]; CLZ 67.5 g a.c./ha): 43%
CLZ h.e. ([3]; CLZ 90 g a.c./ha): 53%
CLZ h.e. (Senecio vulgaris (SENVU); CLZ 45 g a.c./ha): 5%
CLZ h.e. (Senecio vulgaris (SENVU); CLZ 67.5 g a.c./ha): 40%
CLZ h.e. (Senecio vulgaris (SENVU); CLZ 90 g a.c./ha): 39%
CLZ h.e. ([4]; CLZ 54 g a.c./ha): 46.7%
CLZ h.e. ([4]; CLZ 72 g a.c./ha): 56.7%
CLZ h.e. ([4]; CLZ 90 g a.c./ha): 63.3%
CLZ h.e. ([5]; CLZ 54 g a.c./ha): 43.3%
CLZ h.e. ([5]; CLZ 72 g a.c./ha): 50%
CLZ h.e. ([5]; CLZ 90 g a.c./ha): 23.3%
CLZ h.e. (Veronica sp. (VERSS); CLZ 54 g a.c./ha): 43.3%
CLZ h.e. (Veronica sp. (VERSS); CLZ 72 g a.c./ha): 60%
CLZ h.e. (Veronica sp. (VERSS); CLZ 90 g a.c./ha): 16.7%
h.e. (herbicidal effect) (Convolvolus arvensis [6]; CLZ 36 g a.c./ha): 30%
h.e. (herbicidal effect) (Cypurus; CLZ 36 g a.c./ha): 67%
h.e. (herbicidal effect) (Solanum nigrum [7]; CLZ 36 g a.c./ha): 52%
h.e. (herbicidal effect) (Persicaria maculosa; CLZ 36 g a.c./ha): 28%
h.e. (herbicidal effect) (Echinochloa crus galli; CLZ 36 g a.c./ha): 63%
h.e. (herbicidal effect) (Urtica urens; CLZ 36 g a.c./ha): 0%
h.e. (herbicidal effect) (Veronica persica; CLZ 36 g a.c./ha): 0%
h.e. (herbicidal effect) (Chenopodium album; CLZ 90 g a.c./ha): 28%
h.e. (herbicidal effect) (Galium aparine; CLZ 90 g a.c./ha): 33%
h.e. (herbicidal effect) (Amaranthus retroflexus [8]; CLZ 90 g a.c./ha): 10%
h.e. (herbicidal effect) (Merculiaris annua [9]; CLZ 90 g a.c./ha): 50%
h.e. (herbicidal effect) (Polygonum aviculare; CLZ 90 g a.c./ha): 78%
h.e. (herbicidal effect) (Solanum physalifolium; CLZ 90 g a.c./ha): 61%
h.e. (herbicidal effect) (Persicaria maculate; CLZ 90 g a.c./ha): 80%
h.e. (herbicidal effect) (Amaranthus retroflexus [10]; CLZ 72 g a.c./ha): 77%
h.e. (herbicidal effect) (Merculiaris annua [11]; CLZ 72 g a.c./ha): 60%
h.e. (herbicidal effect) ([12]; CLZ 72 g a.c./ha): 34%
h.e. (herbicidal effect) (Solanum nigrum [13]; CLZ 72 g a.c./ha): 66%
h.e. (herbicidal effect) (Panonicum ulmi): 0%

CON(C)C(=O)Nc1ccc(Br)cc1 [MTB, 3-(4-bromophenyl)-1-methoxy-1-methylurea]
h.e. (herbicidal effect) (Convolvolus arvensis [1]; MTB 1200 g a.c./ha): 83%
h.e. (herbicidal effect) (Hibiscus trionum; MTB 1200 g a.c./ha): 81%
h.e. (herbicidal effect) (Setaria viridis; MTB 1200 g a.c./ha): 72%
h.e. (herbicidal effect) (Amaranthus retroflexus [2]; MTB 1200 g a.c./ha): 50%
h.e. (herbicidal effect) (Echinochloa; MTB 1200 g a.c./ha): 35%
MTB h.e. ([3]; MTB 500 g a.c./ha): 61%
MTB h.e. ([3]; MTB 1000 g a.c./ha): 69%
MTB h.e. ([3]; MTB 1500 g a.c./ha): 79%
MTB h.e. (Senecio vulgaris (SENVU); MTB 500 g a.c./ha): 18%
MTB h.e. (Senecio vulgaris (SENVU); MTB 1000 g a.c./ha): 34%
MTB h.e. (Senecio vulgaris (SENVU); MTB 1500 g a.c./ha): 35%
MTB h.e. ([4]; MTB 600 g a.c./ha): 69.3%
MTB h.e. ([4]; MTB 1200 g a.c./ha): 93%
MTB h.e. ([4]; MTB 1800 g a.c./ha): 98.3%
MTB h.e. ([5]; MTB 600 g a.c./ha): 10%
MTB h.e. ([5]; MTB 1200 g a.c./ha): 78.3%
MTB h.e. ([5]; MTB 1800 g a.c./ha): 91%
MTB h.e. (Veronica sp. (VERSS); MTB 600 g a.c./ha): 20%
MTB h.e. (Veronica sp. (VERSS); MTB 1200 g a.c./ha): 35%
MTB h.e. (Veronica sp. (VERSS); MTB 1800 g a.c./ha): 97%
h.e. (herbicidal effect) (Convolvolus arvensis [6]; MTB 400 g a.c./ha): 18%
h.e. (herbicidal effect) (Cypurus; MTB 400 g a.c./ha): 50%
h.e. (herbicidal effect) (Solanum nigrum [7]; MTB 400 g a.c./ha): 76%
h.e. (herbicidal effect) (Persicaria maculosa; MTB 400 g a.c./ha): 79%
h.e. (herbicidal effect) (Echinochloa crus galli; MTB 400 g a.c./ha): 68%
h.e. (herbicidal effect) (Urtica urens; MTB 400 g a.c./ha): 37%
h.e. (herbicidal effect) (Veronica persica; MTB 400 g a.c./ha): 25%
h.e. (herbicidal effect) (Chenopodium album; MTB 1000 g a.c./ha): 75%
h.e. (herbicidal effect) (Galium aparine; MTB 1000 g a.c./ha): 28%
h.e. (herbicidal effect) (Amaranthus retroflexus [8]; MTB 1000 g a.c./ha): 70%
h.e. (herbicidal effect) (Merculiaris annua [9]; MTB 1000 g a.c./ha): 49%
h.e. (herbicidal effect) (Polygonum aviculare; MTB 1000 g a.c./ha): 66%
h.e. (herbicidal effect) (Solanum physalifolium; MTB 1000 g a.c./ha): 65%
h.e. (herbicidal effect) (Persicaria maculate; MTB 1000 g a.c./ha): 43%
h.e. (herbicidal effect) (Amaranthus retroflexus [10]; MTB 1200 g a.c./ha): 43%
h.e. (herbicidal effect) (Merculiaris annua [11]; MTB 1200 g a.c./ha): 40%
h.e. (herbicidal effect) ([12]; MTB 1200 g a.c./ha): 21%
h.e. (herbicidal effect) (Solanum nigrum [13]; MTB 1200 g a.c./ha): 31%
h.e. (herbicidal effect) [14]: 89%
